Like-named read-outs stand apart in the source and are kept apart here.
What was measured:
CYP2C9 = molecular target: T1, CYP2C9 (Homo sapiens, UniProt P11712); experiment: CYP450 enzyme inhibition in human liver microsomes, CYP2C9; format: in vitro ADME; details: substrate Diclofenac Sodium, read-out: Inhibitory activity IC50 (μM) CYP2C9
T1 construct: 0.05 mg/mL liver microsome (BioIVT, IHG) phosphate buffer solution; tissue BioIVT IHG; host or cells: human liver microsomes
Method: (§1) This experiment incubates the compound, liver microsomes and different CYP subtype enzyme substrates in a 37° C. water bath to measure the amount of substrate metabolites produced and evaluate the inhibitory effect of the compound of the present disclosure on CYP enzymes based on the IC50 value.
(§2) i. The compound was diluted to 0, 0.02 mM, 0.06 mM, 0.2 mM, 0.6 mM, 2 mM and 6 mM concentrations with DMSO (Aladdin, catalog number: D103273-500 ml).
(§3) ii. The enzyme substrate solutions of each CYP subtype were prepared by phosphate buffer (sigma: V900050-500G).
(§4) iii. Sample incubation. […] After centrifugation at 4000 rpm and 4° C. for 40 min, the supernatant was diluted with pure water according to the response of the substrate metabolites and then detected by UPLC-MS/MS (Sciex, Q-Trap 4500). […]
(§5) The inhibitory effect of the compound on each P450 enzyme in human liver microsomes was calculated as the percentage of reduced metabolite formation compared with the non-inhibitory control (i.e., blank DMSO). The IC50 value for each P450 enzyme in human liver microsomes was calculated using the logarithm of the remaining activity and the inhibitor concentration using Graphpad Prism software. […]

CYP2D6 = molecular target: T2, CYP2D6 (Homo sapiens, UniProt P10635); experiment: CYP450 enzyme inhibition in human liver microsomes, CYP2D6; format: in vitro ADME; details: substrate Dextromethorphan, read-out: Inhibitory activity IC50 (μM) CYP2D6
T2 construct: 0.05 mg/mL liver microsome (BioIVT, IHG) phosphate buffer solution; tissue BioIVT IHG; host or cells: human liver microsomes
T2 sequence (P10635 whole entry): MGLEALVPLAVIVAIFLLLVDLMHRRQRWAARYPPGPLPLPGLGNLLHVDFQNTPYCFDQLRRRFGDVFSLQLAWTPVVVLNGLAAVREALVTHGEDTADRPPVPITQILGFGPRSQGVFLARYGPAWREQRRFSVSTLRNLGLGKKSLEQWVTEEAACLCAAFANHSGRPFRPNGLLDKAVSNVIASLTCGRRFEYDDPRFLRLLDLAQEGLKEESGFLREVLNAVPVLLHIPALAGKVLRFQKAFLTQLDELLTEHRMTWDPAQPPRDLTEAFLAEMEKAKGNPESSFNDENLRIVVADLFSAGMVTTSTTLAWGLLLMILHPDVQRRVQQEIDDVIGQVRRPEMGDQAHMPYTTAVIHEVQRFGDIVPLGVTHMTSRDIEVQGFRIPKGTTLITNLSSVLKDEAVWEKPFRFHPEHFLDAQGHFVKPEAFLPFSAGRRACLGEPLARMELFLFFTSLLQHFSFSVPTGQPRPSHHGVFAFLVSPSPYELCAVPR
Method: as §1, §2, §3, §4, §5

CYP2C19 = molecular target: T3, CYP2C19 (Homo sapiens, UniProt P33261); experiment: CYP450 enzyme inhibition in human liver microsomes, CYP2C19; format: in vitro ADME; details: substrate Mephenytoin, read-out: Inhibitory activity IC50 (μM) CYP2C19
T3 construct: (CYP2C19 uses 0.2 mg/mL liver microsome); tissue BioIVT IHG; host or cells: human liver microsomes
T3 sequence (P33261 whole entry): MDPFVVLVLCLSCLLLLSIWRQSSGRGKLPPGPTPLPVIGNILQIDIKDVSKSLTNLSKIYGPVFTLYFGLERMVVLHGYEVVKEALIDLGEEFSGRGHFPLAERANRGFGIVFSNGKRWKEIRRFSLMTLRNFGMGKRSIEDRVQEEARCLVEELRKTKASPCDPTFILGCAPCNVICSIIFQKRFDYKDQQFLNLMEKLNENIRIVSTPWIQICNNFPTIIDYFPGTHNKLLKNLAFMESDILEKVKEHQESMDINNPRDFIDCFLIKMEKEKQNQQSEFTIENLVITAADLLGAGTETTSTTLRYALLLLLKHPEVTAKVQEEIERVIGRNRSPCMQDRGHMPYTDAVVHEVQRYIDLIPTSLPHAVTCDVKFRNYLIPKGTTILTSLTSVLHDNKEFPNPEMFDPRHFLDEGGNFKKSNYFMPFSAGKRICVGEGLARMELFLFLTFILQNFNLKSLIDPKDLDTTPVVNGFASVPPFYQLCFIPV
Method: as §1, §2, §3, §4, §5

[1] = Pharmacokinetic evaluation in rats; format: in vivo; details: rat, plasma, SD male rats
Method: Purpose: The test animals were SD male rats. The LC-MS/MS method was used to quantitatively determine the drug concentration in the plasma of rats at different time points after intravenous injection or oral administration of the test compound to evaluate the pharmacokinetic characteristics of the test drug in rats.
SD rats (male, 160-300 g, 5-10 weeks old, Shanghai Xipu-Bikai Experimental Animal Co., Ltd.)
The clear solution of the test compound was injected into SD rats via the tail vein (without fasting) (vehicle: 5% DMSO/10% Solutol/85% Saline), and the clear solution of the test compound was administered to SD rats by gavage (fasting for 10-14 h, free access to water) (vehicle: 5% DMSO/10% Solutol/85% Saline). For intravenous administration, blood was collected from the jugular vein at 0.033, 0.083, 0.25, 0.5, 1, 2, 4, 8, and 24 hrs after administration, placed in an EDTA-K2 anticoagulant tube (Jiangsu Kangjian Medical Supplies Co., Ltd.), mixed, and centrifuged at 2-8° C., 6800 g for 6 minutes to obtain plasma; for oral gavage administration, blood was collected from the jugular vein at 0.083, 0.25, 0.5, 1, 2, 4, 6, 8, and 24 hrs after administration, placed in an EDTA-K2 anticoagulant tube (Jiangsu Kangjian Medical Supplies Co., Ltd.), mixed, and centrifuged at 2-8° C., 6800 g for 6 minutes to obtain plasma. The plasma concentration was determined by LC-MS/MS, and the relevant pharmacokinetic parameters were calculated by the non-compartmental linear logarithmic trapezoidal method using Phoenix WinNonlinTM Version 7.0 (Pharsight, USA) pharmacokinetic software. The compounds of the present disclosure have good pharmacokinetic characteristics in rats.

T1 sequence (P11712 whole entry): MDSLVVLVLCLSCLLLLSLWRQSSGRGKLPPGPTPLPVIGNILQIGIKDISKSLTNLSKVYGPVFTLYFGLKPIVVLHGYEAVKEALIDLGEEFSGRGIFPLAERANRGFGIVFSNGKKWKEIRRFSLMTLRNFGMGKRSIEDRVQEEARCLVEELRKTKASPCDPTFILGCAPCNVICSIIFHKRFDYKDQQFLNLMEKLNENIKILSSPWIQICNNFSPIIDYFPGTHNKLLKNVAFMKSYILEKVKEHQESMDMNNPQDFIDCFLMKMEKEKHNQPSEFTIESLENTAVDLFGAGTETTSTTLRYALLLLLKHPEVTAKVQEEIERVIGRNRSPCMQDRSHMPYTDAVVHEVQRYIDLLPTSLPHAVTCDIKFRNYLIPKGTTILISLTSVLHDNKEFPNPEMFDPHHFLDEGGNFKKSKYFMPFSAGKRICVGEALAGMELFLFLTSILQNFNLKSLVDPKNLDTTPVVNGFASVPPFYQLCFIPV

IC50 (CYP2C9): > 30 µM
IC50 (CYP2D6): > 30 µM
IC50 (CYP2C19): > 30 µM
clearance ([1]; 1 mg/kg, Dosage IV/PO 1/3 mg/kg): 5.78 mL/min/kg
Vd ([1]; 1 mg/kg, Dosage IV/PO 1/3 mg/kg, read-out: Vdss): 1.02 L/kg
Cmax ([1]; Dosage IV/PO 1/3 mg/kg): 1390 ng/mL
bioavailability ([1]; Dosage IV/PO 1/3 mg/kg): 94%
AUC(0-t) ([1]; IV 1 mg/kg, read-out: AUC0-last IV): 2880 ng·h/mL
half-life ([1]; IV 1 mg/kg, read-out: T1/2 (IV, h) (converted)): 3.36 h
AUC(0-t) ([1]; PO 3 mg/kg, read-out: AUC0-last PO): 8120 ng·h/mL
Compound: CC(=O)N1CCOC[C@H]1CNc1nc2nc(-c3c(C)cc(C(F)(F)F)cc3O)ccc2o1 [Compound 111]
